Entries after “also recorded” stand apart in the source; their conditions may differ.
How the values were obtained:
[1] = tested on: PBM tumors (Trp53−/−; Brca1−/−; c-Myc); assay: Orthotopic PBM tumor allograft growth and survival (bioluminescence); type: in vivo, mouse
Experimental: All animal experiments described in this study were performed according to the animal protocols approved by the DFCI Institutional Animal Care and Use Committee. Brca1^loxP/loxP [FVB/N] mice, bearing loxP sites in introns 4 and 13 of the Brca1 gene, and Trp53^loxP/loxP[FVB/N] mice bearing loxP in introns 2 and 10 of the p53 gene, were obtained from Dr. Jos Jonkers's laboratory (Netherlands Cancer Institute, Amsterdam, The Netherlands). These mice were intercrossed through multiple generations to create a colony of homozygous Trp53^loxP/loxP/Brca1^loxP/loxP double conditional knockout mice. Ovaries were harvested from 8-week-old female Trp53^loxP/loxP/Brca1^loxP/loxP mice. The ovaries were washed twice with phosphate-buffered and incubated in DMEM/F12 (Ham's) medium containing collagenase and dispase (stem cell technologies) for 40 min at 37° C. The epithelial cells were pelleted by centrifugation at 800×g and cultured in DMEM/F12 (Life Technologies) supplemented with 4% (vol/vol) FBS, 1% penicillin/streptomycin, 10 ng/mL EGF, 5 μg/mL insulin, 5 Cpg/mL transferrin, and 5 ng/mL sodium selenite. Ovarian surface epithelial (OSE) cells were cultured for 48 hr and then introduced with Adeno-Cre (University of Iowa) and lentiviruses expressing C-Myc gene (Addgene #36980) or control GFP. After two days of infection in vitro, OSE cells are aggregated and implanted into recipient mice. About 5×10^5 OSE cells (Trp53^−/−; Brca1^−/−; c-Myc) were injected into the right ovarian bursal cavities of 6- to 7-week-old female nude mice. In each mouse, the left ovarian bursa was injected with GFP-expressing OSE cells (Trp53^−/−; Brca1^−/−; GFP). PBM (Trp53^−/−; Brca1^−/−; c-Myc) ovarian tumors developed within three to six months after implantation of the genetically engineered OSE cells. The primary ovarian tumors were digested and orthotopically transplanted to FVB/NJ mice. The PPM GEM model (Trp53^−/−; Pten^−/−; c-Myc) was developed with OSE cells isolated from homozygous Trp53^loxP/loxP/Pten^loxP/loxP(FVB/NJ) double conditional knockout mice using the same strategy for generation of the PBM GEM model described above. For histological analysis, tumor pieces were fixed in 10% Formalin overnight and transferred to 70% ethanol. Embedding, sectioning and H&E staining was performed by scientists at the Harvard rodent histopathology core facility. The histological characteristics of high grade ovarian tumor were confirmed by two independent pathologists at Harvard Medical School.
Single cells were obtained by digestion of primary ovarian tumors in collagenase buffer and then cultured in MOT media (DMEM/F12, 0.6% FBS, 10 ng/ml EGF, hydrocortisone 1 μg/ml, cholera toxin 1 ng/ml, 100 μg/ml penicillin-streptomycin, 5 μM Y27632). […] The endpoints were determined by tumor burden and ascites. […]

Brca1-null ID8 tumors = assay: Subcutaneous Brca1-null ID8 tumors in WT or STING-KO mice; type: in vivo, mouse
Experimental: Single cells were obtained by digestion of primary ovarian tumors in collagenase buffer and then cultured in MOT media (DMEM/F12, 0.6% FBS, 10 ng/ml EGF, hydrocortisone 1 μg/ml, cholera toxin 1 ng/ml, 100 μg/ml penicillin-streptomycin, 5 μM Y27632). Tumor cells were transduced with lentiviral vector encoding luciferase (pLenti-blasticidin-luciferase) and then subjected to 3 days antibiotic selection with blasticidin 2 μg/ml. These luciferased tumors were transplanted orthotopically into syngeneic FVB/NJ mice to generated tumors for drug evaluation. Olaparib (AZD2281) was used by diluting 100 mg/ml stocks in DMSO with 10% 2-hydroxyl-propyl-β-cyclodextrine/PBS and administered daily by i.p. injection at dose of 50 mg/kg body weight. Mouse anti-PD-1 monoclonal antibody kindly provided by Gordon Freeman at DFCI was diluted in PBS (250 μg/100 μl/mouse) and injected by i.p. every 3 days. BX795 (Cat # HY-10514/CS-0259, MedChem Express) was prepared in DMSO (100 mg/ml) as stock solution and diluted in (25% PEG400+0.5% Tween)/PBS and administered daily by i.p. injection at dose of 30 mg/kg body weight. Anti-IFNAR1 antibody (Cat # BE0241; clone, MAR1-5A3; InVivoMab) was diluted in PBS (200 μg/100 μl/mouse) and injected by i.p. every 3 days. Tumor-bearing mice were equivalently divided into control and treatment groups according to the luminescent intensity. The endpoints were determined by tumor burden and ascites. For the CD8 depletion experiment, mice were injected intraperitoneally with anti-CD8 antibody (400 μg; clone YTS 169.4, BioXcell) 24 and 48 h before beginning olaparib treatment (50 mg/kg/day) and every 4 days thereafter.
Brca-1 deficient ID8 cells were generated using a CRISPR double nickase plasmid. […] Due to a lack of a reliable mouse BRCA1 antibody for Western blot, cells were analyzed by DNA sequencing to confirm the disruption of functional Brca1 allele. […]

O=C(c1cc(Cc2n[nH]c(=O)c3ccccc23)ccc1F)N1CCN(C(=O)C2CC2)CC1 [olaparib, Olaparib]
tumor growth / tumor progression (tumor burden by bioluminescence) ([1]; PBM tumor-bearing FVB mice, olaparib 50 mg/kg daily i.p., anti-PD-1 250 μg/mouse i.p. every 3 days): significantly delayed tumor progression; also recorded: delayed tumor growth; also recorded: effectively inhibit the growth | therapeutic effect of olaparib in Rag1−/− host mice ([1]; PBM tumors in Rag1−/− vs wild-type FVB mice): partially abrogated | survival of PBM tumor-bearing mice ([1]; mouse, in vivo): significantly prolonged the survival; also recorded: eventually succumbed to the disease | tumor growth (tumor weights) (Brca1-null ID8 tumors; STING-KO hosts): little effect | abundance of intratumoral p-TBK1+ DCs (Brca1-null ID8 tumors; WT host): increased abundance | tumor growth (tumor weights) (Brca1-null ID8 tumors; WT mice): significantly inhibited the tumor growth

Source: patent publication US20200268864A1, “CANCER VACCINE COMPOSITIONS AND METHODS FOR USING SAME TO TREAT CANCER” (Dana-Farber Cancer Institute, Inc., priority 2017, published 2020)
